# Key:
# Experiment in all cases: HTRF Assay
# [1] = target: Mitogen-activated protein kinase 10 (Homo sapiens, UniProt P53779)
# Description: (§1) The aJNK solution (20 μl/well) was added to the plate and the plate was shaken. The enzyme was incubated with the compound at RT for 10 min.(5) ATP/substrate solution preparation: ATP and substrate stocks were thawed on ice. […] The ATP/substrate (20 μl/well) was added to the plate and the plate was shaken. The plate was incubated at RT for 15 min. Note: In an exemplary assay, the final ATP concentration was about 1 mM.(6) EDTA preparation: 30 mM EDTA was prepared using 0.5M EDTA stock and assay buffer #1. The EDTA (10 μl/well) was added to the plate to quench the enzyme reaction and the plate was shaken well.(7) Detection reagent preparation: Eu-63 and SA-XL stocks were thawed on ice. […] The Eu-63/SA-XL solution (20 μl/well) was added to the plate and the plate was shaken. The plate was incubated at RT for 1 hr before reading the plate on LJL using ratiometric method named HTRF.
# [2] = target: Mitogen-activated protein kinase 8 (Homo sapiens, UniProt P45983)
# Description: as §1
# [3] = target: Mitogen-activated protein kinase 9 (Homo sapiens, UniProt P45984)
# Description: as §1
# Sequence of Mitogen-activated protein kinase 9 (P45984 whole entry): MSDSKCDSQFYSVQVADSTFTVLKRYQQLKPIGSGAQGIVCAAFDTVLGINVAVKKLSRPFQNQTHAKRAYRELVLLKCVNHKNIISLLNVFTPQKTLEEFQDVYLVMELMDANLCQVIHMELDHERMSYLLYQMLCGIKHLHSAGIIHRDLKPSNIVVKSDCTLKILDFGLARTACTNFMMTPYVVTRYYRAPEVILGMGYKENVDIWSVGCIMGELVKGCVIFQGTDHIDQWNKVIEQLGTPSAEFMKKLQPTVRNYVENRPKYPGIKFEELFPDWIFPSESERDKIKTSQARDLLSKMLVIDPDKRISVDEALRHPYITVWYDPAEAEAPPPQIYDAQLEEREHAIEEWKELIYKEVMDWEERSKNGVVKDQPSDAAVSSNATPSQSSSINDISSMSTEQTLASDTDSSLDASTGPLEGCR
# Sequence of Mitogen-activated protein kinase 8 (P45983 whole entry): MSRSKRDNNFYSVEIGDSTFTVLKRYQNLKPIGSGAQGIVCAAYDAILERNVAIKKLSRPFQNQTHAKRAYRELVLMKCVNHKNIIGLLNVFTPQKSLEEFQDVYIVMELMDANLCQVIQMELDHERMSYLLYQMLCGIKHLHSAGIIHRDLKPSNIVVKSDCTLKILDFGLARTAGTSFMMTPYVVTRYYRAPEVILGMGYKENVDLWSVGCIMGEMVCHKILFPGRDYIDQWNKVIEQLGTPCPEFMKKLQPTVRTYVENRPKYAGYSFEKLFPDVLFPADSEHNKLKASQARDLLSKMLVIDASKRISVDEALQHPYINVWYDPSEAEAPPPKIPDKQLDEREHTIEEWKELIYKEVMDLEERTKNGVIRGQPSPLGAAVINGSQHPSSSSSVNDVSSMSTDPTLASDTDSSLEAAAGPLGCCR
# Sequence of Mitogen-activated protein kinase 10 (P53779 whole entry): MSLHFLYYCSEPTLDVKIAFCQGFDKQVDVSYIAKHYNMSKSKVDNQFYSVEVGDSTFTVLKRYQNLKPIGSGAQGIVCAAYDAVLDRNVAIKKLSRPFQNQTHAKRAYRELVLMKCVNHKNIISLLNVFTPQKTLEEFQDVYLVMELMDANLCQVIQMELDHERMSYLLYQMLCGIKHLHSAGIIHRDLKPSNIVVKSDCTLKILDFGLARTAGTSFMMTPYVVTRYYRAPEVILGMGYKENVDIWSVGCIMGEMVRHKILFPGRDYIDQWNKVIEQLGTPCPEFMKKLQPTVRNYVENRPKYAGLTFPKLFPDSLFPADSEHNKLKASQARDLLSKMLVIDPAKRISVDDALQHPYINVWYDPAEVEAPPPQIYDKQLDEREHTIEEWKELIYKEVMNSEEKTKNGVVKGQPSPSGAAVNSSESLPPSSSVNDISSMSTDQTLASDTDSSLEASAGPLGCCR
IC50 [1],IC50 [2],IC50 [3],Structure (SMILES)
in the range around 5.05 µM,in the range around 5.05 µM,in the range around 5.05 µM,"CN(C)CCN(C(=O)Cn1c(=O)ccc2cc(C(F)(F)F)ccc21)c1scc(Cl)c1-c1nc[nH]n1 [US9796706, Compound 158]"
in the range around 5.05 µM,in the range around 5.05 µM,in the range around 5.05 µM,"O=C(Cn1c(=O)ccc2cc(C(F)(F)F)ccc21)N(CCCN1CCCC1)c1scc(Cl)c1-c1nc[nH]n1 [US9796706, Compound 162]"

# From BindingDB's records for patent US9796706 (Imago Pharmaceuticals, 2017)
